HELM strings list units from the 5' end as sugar, base in round brackets, then linkage (d deoxyribose, r ribose, m 2'-O-methyl, p phosphodiester). Strings are as the collection lists them; they lack the last nucleoside at the 3' end of the tested compound. [moe] = 2'-O-(2-methoxyethyl) (MOE); [sp] = phosphorothioate linkage; [m5C] = 5-methylcytosine

In this series the target is C9ORF72. The series can be described thus: mouse, dose not given. As to conditions: ASO.
In turn, “RNA1{[moe](T)[sp].[moe](G)p.[moe](G)p.[moe](T)p.[moe](T)p.[moe](A)p.d(A)[sp].d(T)[sp].d([m5C])[sp].d(T)[sp].d(T)[sp].d(T)[sp].d(A)[sp].d(T)[sp].d([m5C])[sp].d(A)[sp].[moe](G)p.[moe](G)[sp].[moe](T)}$$$$ (last 3' nucleoside missing)” returned a 3 h FOB score of 1 score 0-7. “RNA1{[moe]([m5C])[sp].[moe]([m5C])p.[moe](G)p.[moe](G)p.[moe]([m5C])p.[moe]([m5C])p.d([m5C])[sp].d([m5C])[sp].d(T)[sp].d(A)[sp].d(G)[sp].d([m5C])[sp].d(G)[sp].d([m5C])[sp].d(G)[sp].d([m5C])[sp].[moe](G)p.[moe](A)[sp].[moe]([m5C])}$$$$ (last 3' nucleoside missing)” returned a 3 h FOB score of 3.5 score 0-7. “RNA1{[moe]([m5C])[sp].[moe]([m5C])p.[moe](T)p.[moe](A)p.[moe](G)p.[moe]([m5C])[sp].d(G)[sp].d([m5C])[sp].d(G)[sp].d([m5C])[sp].d(G)[sp].d(A)[sp].d([m5C])[sp].d(T)[sp].[moe]([m5C])p.[moe]([m5C])[sp].[moe](T)}$$$$ (last 3' nucleoside missing)” showed a 3 h FOB score of 6 score 0-7. The figure for “RNA1{[moe](A)[sp].[moe](G)p.[moe](G)p.[moe]([m5C])p.[moe](T)p.[moe](G)p.d([m5C])[sp].d(G)[sp].d(G)[sp].d(T)[sp].d(T)[sp].d(G)[sp].d(T)[sp].d(T)[sp].d(T)[sp].[moe]([m5C])p.[moe]([m5C])[sp].[moe]([m5C])}$$$$ (last 3' nucleoside missing)” is 6 score 0-7. On to “RNA1{[moe]([m5C])[sp].[moe]([m5C])p.[moe](G)p.[moe](G)p.[moe]([m5C])p.[moe]([m5C])p.d([m5C])[sp].d([m5C])[sp].d(T)[sp].d(A)[sp].d(G)[sp].d([m5C])[sp].d(G)[sp].d([m5C])[sp].d(G)[sp].[moe]([m5C])p.[moe](G)[sp].[moe](A)}$$$$ (last 3' nucleoside missing)”, for which the 3 h FOB score stood at 5.75 score 0-7.

“RNA1{[moe]([m5C])[sp].[moe](A)p.[moe](G)p.[moe](G)p.[moe]([m5C])p.d(T)[sp].d(G)[sp].d([m5C])[sp].d(G)[sp].d(G)[sp].d(T)[sp].d(T)[sp].d(G)[sp].d(T)[sp].[moe](T)p.[moe](T)p.[moe]([m5C])[sp].[moe]([m5C])}$$$$ (last 3' nucleoside missing)” returned a 3 h FOB score of 5 score 0-7. The figure for “RNA1{[moe]([m5C])[sp].[moe](T)p.[moe](A)p.[moe](G)[sp].d([m5C])[sp].d(G)[sp].d([m5C])[sp].d(G)[sp].d([m5C])[sp].d(G)[sp].d(A)[sp].d([m5C])[sp].[moe](T)p.[moe]([m5C])p.[moe]([m5C])p.[moe](T)[sp].[moe](G)}$$$$ (last 3' nucleoside missing)” is 3.25 score 0-7; for “RNA1{[moe]([m5C])[sp].[moe](T)p.[moe](G)p.[moe]([m5C])p.[moe](G)p.[moe](A)p.d(T)[sp].d([m5C])[sp].d([m5C])[sp].d([m5C])[sp].d([m5C])[sp].d(A)[sp].d(T)[sp].d(T)[sp].d([m5C])[sp].d([m5C])[sp].[moe](A)p.[moe](G)[sp].[moe](T)}$$$$ (last 3' nucleoside missing)” it is 0.25 score 0-7; for “RNA1{[moe](G)[sp].[moe](G)[sp].[moe](T)[sp].[moe](A)[sp].[moe](A)[sp].d([m5C])[sp].d(T)[sp].d(T)[sp].d([m5C])[sp].d(A)[sp].d(A)[sp].d(A)[sp].d([m5C])[sp].d(T)[sp].d([m5C])[sp].[moe](T)[sp].[moe](T)[sp].[moe](G)[sp].[moe](G)}$$$$ (last 3' nucleoside missing)” it is 7 score 0-7.

Turning to “RNA1{[moe](G)[sp].[moe](G)p.[moe]([m5C])p.[moe]([m5C])p.[moe]([m5C])p.[moe]([m5C])p.d(T)[sp].d(A)[sp].d(G)[sp].d([m5C])[sp].d(G)[sp].d([m5C])[sp].d(G)[sp].d([m5C])[sp].d(G)[sp].d(A)[sp].[moe]([m5C])p.[moe](T)[sp].[moe]([m5C])}$$$$ (last 3' nucleoside missing)”, the 3 h FOB score was determined as 1.25 score 0-7.

The substance “RNA1{[moe]([m5C])[sp].[moe]([m5C])[sp].[moe]([m5C])[sp].[moe](G)[sp].[moe](G)[sp].d([m5C])[sp].d([m5C])[sp].d([m5C])[sp].d([m5C])[sp].d(T)[sp].d(A)[sp].d(G)[sp].d([m5C])[sp].d(G)[sp].d([m5C])[sp].[moe](G)[sp].[moe]([m5C])[sp].[moe](G)[sp].[moe](A)}$$$$ (last 3' nucleoside missing)” registered a 3 h FOB score of 6 score 0-7. Regarding “RNA1{[moe]([m5C])[sp].[moe](G)p.[moe](G)p.[moe]([m5C])p.[moe]([m5C])p.[moe]([m5C])p.d([m5C])[sp].d(T)[sp].d(A)[sp].d(G)[sp].d([m5C])[sp].d(G)[sp].d([m5C])[sp].d(G)[sp].d([m5C])[sp].d(G)[sp].[moe](A)p.[moe]([m5C])[sp].[moe](T)}$$$$ (last 3' nucleoside missing)”, the 3 h FOB score was found to be 1.25 score 0-7.

In turn, “RNA1{[moe](G)[sp].[moe](G)p.[moe](T)p.[moe](T)p.d(A)[sp].d(A)[sp].d(T)[sp].d([m5C])[sp].d(T)[sp].d(T)[sp].d(T)[sp].d(A)[sp].d(T)[sp].d([m5C])[sp].[moe](A)p.[moe](G)p.[moe](G)p.[moe](T)[sp].[moe]([m5C])}$$$$ (last 3' nucleoside missing)” registered a 3 h FOB score of 0 score 0-7. Substance “RNA1{[moe](G)[sp].[moe](G)p.[moe]([m5C])p.[moe]([m5C])[sp].d([m5C])[sp].d([m5C])[sp].d(T)[sp].d(A)[sp].d(G)[sp].d([m5C])[sp].d(G)[sp].d([m5C])[sp].[moe](G)p.[moe]([m5C])p.[moe](G)p.[moe](A)[sp].[moe]([m5C])}$$$$ (last 3' nucleoside missing)” displayed a 3 h FOB score of 2.5 score 0-7. The substance “RNA1{[moe]([m5C])[sp].[moe]([m5C])p.[moe](G)p.[moe](G)p.d([m5C])[sp].d([m5C])[sp].d([m5C])[sp].d([m5C])[sp].d(T)[sp].d(A)[sp].d(G)[sp].d([m5C])[sp].d(G)[sp].[moe]([m5C])p.[moe](G)p.[moe]([m5C])p.[moe](G)[sp].[moe](A)}$$$$ (last 3' nucleoside missing)” yielded a 3 h FOB score of 6 score 0-7. “RNA1{[moe](G)[sp].[moe]([m5C])p.[moe]([m5C])p.[moe]([m5C])p.d([m5C])[sp].d(T)[sp].d(A)[sp].d(G)[sp].d([m5C])[sp].d(G)[sp].d([m5C])[sp].d(G)[sp].d([m5C])[sp].d(G)[sp].[moe](A)p.[moe]([m5C])p.[moe](T)p.[moe]([m5C])[sp].[moe]([m5C])}$$$$ (last 3' nucleoside missing)” yielded a 3 h FOB score of 1.25 score 0-7. Regarding “RNA1{[moe](A)[sp].[moe](A)[sp].[moe](T)[sp].[moe]([m5C])[sp].[moe](T)[sp].d(T)[sp].d(T)[sp].d(A)[sp].d(T)[sp].d([m5C])[sp].d(A)[sp].d(G)[sp].d(G)[sp].d(T)[sp].d([m5C])[sp].[moe](T)[sp].[moe](T)[sp].[moe](T)[sp].[moe](T)}$$$$ (last 3' nucleoside missing)”, the 3 h FOB score is 6.5 score 0-7.

Substance “RNA1{[moe]([m5C])[sp].[moe](T)p.[moe](G)p.d(G)[sp].d(T)[sp].d(T)[sp].d(A)[sp].d(A)[sp].d(T)[sp].d([m5C])[sp].d(T)[sp].d(T)[sp].d(T)[sp].[moe](A)p.[moe](T)p.[moe]([m5C])p.[moe](A)p.[moe](G)[sp].[moe](G)}$$$$ (last 3' nucleoside missing)” gave a 3 h FOB score of 0 score 0-7. Substance “RNA1{[moe]([m5C])[sp].[moe](T)p.[moe](G)p.[moe](G)p.[moe](T)p.[moe](T)p.[moe](A)p.d(A)[sp].d(T)[sp].d([m5C])[sp].d(T)[sp].d(T)[sp].d(T)[sp].d(A)[sp].d(T)[sp].d([m5C])[sp].d(A)[sp].[moe](G)[sp].[moe](G)}$$$$ (last 3' nucleoside missing)” returned a 3 h FOB score of 2.25 score 0-7. “RNA1{[moe](T)[sp].[moe]([m5C])p.[moe](T)p.d(G)[sp].d(T)[sp].d([m5C])[sp].d(T)[sp].d(T)[sp].d(T)[sp].d(G)[sp].d(G)[sp].d(A)[sp].d(G)[sp].[moe]([m5C])p.[moe]([m5C])p.[moe]([m5C])p.[moe](A)p.[moe](A)[sp].[moe](A)}$$$$ (last 3' nucleoside missing)”: the 3 h FOB score was determined as 6.75 score 0-7. Consider “RNA1{[moe](G)[sp].[moe](G)p.[moe]([m5C])p.[moe](T)p.[moe](G)p.[moe]([m5C])[sp].d(G)[sp].d(G)[sp].d(T)[sp].d(T)[sp].d(G)[sp].d(T)[sp].d(T)[sp].d(T)[sp].[moe]([m5C])p.[moe]([m5C])[sp].[moe]([m5C])}$$$$ (last 3' nucleoside missing)”, for which the 3 h FOB score is 2.5 score 0-7.

On to “RNA1{[moe](T)[sp].[moe](G)p.[moe](G)p.[moe](T)p.[moe](T)p.[moe](A)[sp].d(A)[sp].d(T)[sp].d([m5C])[sp].d(T)[sp].d(T)[sp].d(T)[sp].d(A)[sp].d(T)[sp].[moe]([m5C])p.[moe](A)[sp].[moe](G)}$$$$ (last 3' nucleoside missing)”, for which the 3 h FOB score turned out to be 6.25 score 0-7.

With “RNA1{[moe]([m5C])[sp].[moe]([m5C])p.[moe]([m5C])p.[moe](T)p.[moe](A)p.[moe](G)[sp].d([m5C])[sp].d(G)[sp].d([m5C])[sp].d(G)[sp].d([m5C])[sp].d(G)[sp].d(A)[sp].d([m5C])[sp].[moe](T)p.[moe]([m5C])[sp].[moe]([m5C])}$$$$ (last 3' nucleoside missing)”, the 3 h FOB score came out at 3 score 0-7. Substance “RNA1{[moe](G)[sp].[moe]([m5C])p.[moe]([m5C])p.d(T)[sp].d(T)[sp].d(A)[sp].d([m5C])[sp].d(T)[sp].d([m5C])[sp].d(T)[sp].d(A)[sp].d(G)[sp].d(G)[sp].[moe](A)p.[moe]([m5C])p.[moe]([m5C])p.[moe](A)p.[moe](A)[sp].[moe](G)}$$$$ (last 3' nucleoside missing)” returned a 3 h FOB score of 2 score 0-7. On to “RNA1{[moe](T)[sp].[moe]([m5C])p.[moe](T)p.[moe](G)p.d(T)[sp].d([m5C])[sp].d(T)[sp].d(T)[sp].d(T)[sp].d(G)[sp].d(G)[sp].d(A)[sp].d(G)[sp].d([m5C])[sp].[moe]([m5C])p.[moe]([m5C])p.[moe](A)p.[moe](A)[sp].[moe](A)}$$$$ (last 3' nucleoside missing)”, for which the 3 h FOB score is 6.75 score 0-7.

For the origin of these results see the OligoGym collection.
